Assays:
Format in all cases: in vivo
corn = assay: Test Example 5: effect on crop by foliage application, plastic box (symbol c); details: 320 g/ha, 3 weeks after application
Method in brief: (§1)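 Greenhouse test at 25° C. to 30° C. Seeds of crops and weeds were spot-sown in boxes of sterilized diluvial soil under roughly 1.5 cm soil cover, then grown for foliage treatment.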

Monochoria vaginalis = assay: Test Example 1: herbicidal activity, application before weed generation in submerged conditions (symbol C); details: application herbicide amount 320 g/ha
Method in brief: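 Paddy pre-emergence test. Formulated emulsion, water-diluted to a predetermined rate, is applied to floodwater on sowing day; rice transplanted at 2.5 leaves. Effect read at 3 weeks on a 0–5 herbicidal-ratio scale.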

transplanted rice plant = assay: Test Example 1: effect on crop, application before weed generation in submerged conditions (symbol a); details: application herbicide amount 320 g/ha
Method in brief: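 Alluvial soil pots flooded to 4 cm water, sown with Echinochloa oryzacola, Scirpus juncoides and Monochoria vaginalis, then transplanted with 2.5 leaf stage rice seedlings; pre-emergence application. Greenhouse 25° C. to 30° C.; scored 0–5 by herbicidal ratio 3 weeks after application.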

[1] = tested on: Echinochloa crus-galli var. crus-galli; assay: Test Example 3: herbicidal effect by foliage application, Wagner pot (symbol H); details: application herbicide amount 320 g/ha; for H (Echinochloa crus-galli var. crus-galli) herbicidal effect grade: Table 24
Method in brief: (§2)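 Foliar spray of a water-diluted emulsion at a predetermined herbicide amount, applied to 14-day-old plants. Seedlings were raised in flooded alluvial soil (0.1–0.5 cm water) at 25–30 °C in a greenhouse. Injury was rated after 3 weeks against fixed criteria.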

beet = assay: Test Example 4: effect on crop by soil treatment (symbol f); details: for f: beet, effect grade on crop: 320 g/ha; for Effect on crop grade, f: beet: application herbicide amount 320 g/ha
Method in brief: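 Greenhouse culture at 25° C. to 30° C. followed sowing of seed in spots on sterilized diluvial soil with a soil cover close to 1.5 cm thick.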

[2] = tested on: Echinochloa oryzacola Vasing.; assay: Test Example 2: herbicidal activity, application during weed generation in submerged conditions (symbol A); details: Table 23; application herbicide amount 320 g/ha; grade 0-5 by criteria of Test Example 1
Method in brief: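 Scoring of herbicidal effect took place 3 weeks after treatment, using the criteria of the earlier test. Treatment was water-surface application of diluted emulsifiable compound at a set dose. Plants were at one- to two-leaf stage in submerged alluvial soil (4 cm depth), greenhouse 25-30° C.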

Leptochloa chinensis = assay: Test Example 3: herbicidal effect by foliage application, Wagner pot (symbol D); details: application herbicide amount 320 g/ha; for D (Leptochloa chinensis) herbicidal effect grade: Table 24
Method in brief: as §2

Lolium multiflorum Lam. = assay: Test Example 4: herbicidal effect by soil treatment (symbol K); details: for K: Lolium multiflorum Lam., herbicidal effect grade: 320 g/ha; for Herbicidal effect grade, K: Lolium multiflorum Lam.: application herbicide amount 320 g/ha
Method in brief: (§3)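 Seeds were sown in sterilized diluvial soil, covered with about 1.5 cm of soil, and the soil surface was sprayed with a water-diluted emulsion of the compound at a predetermined rate. Plants grew in a greenhouse at 25° C. to 30° C.; effects were scored visually 3 weeks after application.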

[3] = tested on: directly sowed rice plant; assay: Test Example 3: effect on crop by foliage application, Wagner pot (symbol b); details: application herbicide amount 320 g/ha; for b (directly sowed rice plant) effect on crop grade: Table 24
Method in brief: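 Steps: fill a 1/10000-are Wagner pot with alluvial soil; add water and mix to submerge at 0.1–0.5 cm depth; sow rice plus Echinochloa crus-galli var. crus-galli, Leptochloa chinensis and Cyperus difformis; grow in a 25–30 °C greenhouse.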

Digitaria ciliaris = assay: Test Example 4: herbicidal effect by soil treatment (symbol F); details: for F: Digitaria ciliaris, herbicidal effect grade: 320 g/ha; for Herbicidal effect grade, F: Digitaria ciliaris: application herbicide amount 320 g/ha
Method in brief: as §3

soybean = assay: Test Example 5: effect on crop by foliage application, plastic box (symbol d); details: 320 g/ha, 3 weeks after application
Method in brief: as §1

Chenopodium album = assay: Test Example 4: herbicidal effect by soil treatment (symbol O); details: for O: Chenopodium album, herbicidal effect grade: 320 g/ha; for Herbicidal effect grade, O: Chenopodium album: application herbicide amount 320 g/ha
Method in brief: as §3

Structure (SMILES)	c: corn, effect on crop (criteria 0-5) (corn)	Herbicidal effect grade, C: Monochoria vaginalis (Monochoria vaginalis)	Effect grade on crop, a: transplanted rice plant (transplanted rice plant)	herbicidal effect on H (Echinochloa crus-galli var. crus-galli), grade 0-5 [1]	f: beet, effect grade on crop (beet)	Herbicidal effect grade, A: Echinochloa oryzacola Vasing. [2]	herbicidal effect on D (Leptochloa chinensis), grade 0-5 (Leptochloa chinensis)	K: Lolium multiflorum Lam., herbicidal effect grade (Lolium multiflorum Lam.)	effect on crop b (directly sowed rice plant), grade 0-5 [3]	F: Digitaria ciliaris, herbicidal effect grade (Digitaria ciliaris)	d: soybean, effect on crop (criteria 0-5) (soybean)	O: Chenopodium album, herbicidal effect grade (Chenopodium album)	c: corn, effect on crop grade (corn)	C (Monochoria vaginalis) herbicidal effect grade (Monochoria vaginalis)	a (transplanted rice plant) effect on crop grade (transplanted rice plant)	H (Echinochloa crus-galli var. crus-galli) herbicidal effect grade [1]	Effect on crop grade, f: beet (beet)	D (Leptochloa chinensis) herbicidal effect grade (Leptochloa chinensis)	Herbicidal effect grade, K: Lolium multiflorum Lam. (Lolium multiflorum Lam.)	b (directly sowed rice plant) effect on crop grade [3]	further results
CC(CC1CC(O)=C(c2c(C)cc(C)cc2C)C1=O)=NOCc1cccc(C(F)(F)F)c1 (stereo not drawn) [1-117]	3 (Herbicidal ratio of 40% or higher and lower than 70%)	5 (Herbicidal ratio of 90% or more (almost completely withered))	5 (Herbicidal ratio of 90% or more (almost completely withered))	5 (Herbicidal ratio of 90% or more (almost completely withered))	0 (Herbicidal ratio of 5% or lower (almost no effect))	4 (Herbicidal ratio of 70% or higher and lower than 90%)	4 (Herbicidal ratio of 70% or higher and lower than 90%)	4 (Herbicidal ratio of 70% or higher and lower than 90%)	5 (Herbicidal ratio of 90% or more (almost completely withered))	4 (Herbicidal ratio of 70% or higher and lower than 90%)	0 (Herbicidal ratio of 5% or lower (almost no effect))	0 (Herbicidal ratio of 5% or lower (almost no effect))	–	–	–	–	–	–	–	–	–
CCCON=C(C)CC1CC(O)=C(c2c(C)cc(C)cc2C)C1=O (stereo not drawn) [1-123]	5 (Herbicidal ratio of 90% or more (almost completely withered))	3 (Herbicidal ratio of 40% or higher and lower than 70%)	5 (Herbicidal ratio of 90% or more (almost completely withered))	5 (Herbicidal ratio of 90% or more (almost completely withered))	0 (Herbicidal ratio of 5% or lower (almost no effect))	5 (Herbicidal ratio of 90% or more (almost completely withered))	5 (Herbicidal ratio of 90% or more (almost completely withered))	5 (Herbicidal ratio of 90% or more (almost completely withered))	5 (Herbicidal ratio of 90% or more (almost completely withered))	5 (Herbicidal ratio of 90% or more (almost completely withered))	2 (Herbicidal ratio of 20% or higher and lower than 40%)	0 (Herbicidal ratio of 5% or lower (almost no effect))	–	–	–	–	–	–	–	–	–
CON=C(C)CC1CC(OC(=O)c2nsc(Cl)c2Cl)=C(c2c(C)cc(C)cc2C)C1=O (stereo not drawn) [1-099]	5 (Herbicidal ratio of 90% or more (almost completely withered))	2 (Herbicidal ratio of 20% or higher and lower than 40%)	5 (Herbicidal ratio of 90% or more (almost completely withered))	5 (Herbicidal ratio of 90% or more (almost completely withered))	2 (Herbicidal ratio of 20% or higher and lower than 40%)	4 (Herbicidal ratio of 70% or higher and lower than 90%)	5 (Herbicidal ratio of 90% or more (almost completely withered))	5 (Herbicidal ratio of 90% or more (almost completely withered))	5 (Herbicidal ratio of 90% or more (almost completely withered))	5 (Herbicidal ratio of 90% or more (almost completely withered))	4 (Herbicidal ratio of 70% or higher and lower than 90%)	0 (Herbicidal ratio of 5% or lower (almost no effect))	–	–	–	–	–	–	–	–	–
CC(CC1CC(OC(=O)COc2ccccc2)=C(c2c(C)cc(-c3ccc(Cl)cc3)cc2C)C1=O)=NOCC(F)(F)F (mixture of isomers) [9-027]	–	–	–	–	–	3 (Herbicidal ratio of 40% or higher and lower than 70%)	–	–	–	–	–	–	5 (Herbicidal ratio of 90% or more (almost completely withered))	1 (Herbicidal ratio of 5% or higher and lower than 20%)	5 (Herbicidal ratio of 90% or more (almost completely withered))	5 (Herbicidal ratio of 90% or more (almost completely withered))	0 (Herbicidal ratio of 5% or lower (almost no effect))	5 (Herbicidal ratio of 90% or more (almost completely withered))	5 (Herbicidal ratio of 90% or more (almost completely withered))	3 (Herbicidal ratio of 40% or higher and lower than 70%)	Herbicidal effect grade, F: Digitaria ciliaris (Digitaria ciliaris): 5 (Herbicidal ratio of 90% or more (almost completely withered)); d: soybean, effect on crop grade (soybean): 0 (Herbicidal ratio of 5% or lower (almost no effect)); Herbicidal effect grade, O: Chenopodium album (Chenopodium album): 3 (Herbicidal ratio of 40% or higher and lower than 70%)
CC(CC1CC(O)=C(c2c(C)cc(C)cc2C)C1=O)=NOCc1cccc(Cl)c1 (stereo not drawn) [1-114]	1 (Herbicidal ratio of 5% or higher and lower than 20%)	5 (Herbicidal ratio of 90% or more (almost completely withered))	5 (Herbicidal ratio of 90% or more (almost completely withered))	5 (Herbicidal ratio of 90% or more (almost completely withered))	0 (Herbicidal ratio of 5% or lower (almost no effect))	4 (Herbicidal ratio of 70% or higher and lower than 90%)	5 (Herbicidal ratio of 90% or more (almost completely withered))	5 (Herbicidal ratio of 90% or more (almost completely withered))	5 (Herbicidal ratio of 90% or more (almost completely withered))	5 (Herbicidal ratio of 90% or more (almost completely withered))	0 (Herbicidal ratio of 5% or lower (almost no effect))	0 (Herbicidal ratio of 5% or lower (almost no effect))	–	–	–	–	–	–	–	–	–
Cc1cc(-n2cc(Cl)cn2)cc(C)c1C1=C(O)CC(CC(=NOCC(F)(F)F)C(C)C)C1=O (stereo not drawn) [9-014]	–	–	–	–	–	2 (Herbicidal ratio of 20% or higher and lower than 40%)	–	–	–	–	–	–	5 (Herbicidal ratio of 90% or more (almost completely withered))	2 (Herbicidal ratio of 20% or higher and lower than 40%)	5 (Herbicidal ratio of 90% or more (almost completely withered))	5 (Herbicidal ratio of 90% or more (almost completely withered))	0 (Herbicidal ratio of 5% or lower (almost no effect))	5 (Herbicidal ratio of 90% or more (almost completely withered))	0 (Herbicidal ratio of 5% or lower (almost no effect))	5 (Herbicidal ratio of 90% or more (almost completely withered))	Herbicidal effect grade, F: Digitaria ciliaris (Digitaria ciliaris): 4 (Herbicidal ratio of 70% or higher and lower than 90%); d: soybean, effect on crop grade (soybean): 0 (Herbicidal ratio of 5% or lower (almost no effect)); Herbicidal effect grade, O: Chenopodium album (Chenopodium album): 0 (Herbicidal ratio of 5% or lower (almost no effect))

Reference: patent US11000033B2, “Ketone or oxime compound, and herbicide” (NISSAN CHEMICAL CORPORATION, priority 2014, dated 2021)
